Source: patent US10087148B2, “Quinazolines as biogenic amine transport modulators” (THE UNITED STATES OF AMERICA AS REPRESENTED BY THE …, priority 2014, dated 2018)

Key:
[1] = target: serotonin transporter (SERT) (Rattus norvegicus (Rat), UniProt P31652); assay: [3H]serotonin (5-HT) uptake inhibition in rat brain synaptosomes; assay type: biochemical; conditions: for Emax: mean ± S.D., n = 3, read-out: SERT Uptake Emax; for 5HT Uptake Emax / EC50: rat brain synaptosomes, 5 nM [3H]serotonin, mean ± SD
Chain of serotonin transporter (SERT) (P31652 whole entry): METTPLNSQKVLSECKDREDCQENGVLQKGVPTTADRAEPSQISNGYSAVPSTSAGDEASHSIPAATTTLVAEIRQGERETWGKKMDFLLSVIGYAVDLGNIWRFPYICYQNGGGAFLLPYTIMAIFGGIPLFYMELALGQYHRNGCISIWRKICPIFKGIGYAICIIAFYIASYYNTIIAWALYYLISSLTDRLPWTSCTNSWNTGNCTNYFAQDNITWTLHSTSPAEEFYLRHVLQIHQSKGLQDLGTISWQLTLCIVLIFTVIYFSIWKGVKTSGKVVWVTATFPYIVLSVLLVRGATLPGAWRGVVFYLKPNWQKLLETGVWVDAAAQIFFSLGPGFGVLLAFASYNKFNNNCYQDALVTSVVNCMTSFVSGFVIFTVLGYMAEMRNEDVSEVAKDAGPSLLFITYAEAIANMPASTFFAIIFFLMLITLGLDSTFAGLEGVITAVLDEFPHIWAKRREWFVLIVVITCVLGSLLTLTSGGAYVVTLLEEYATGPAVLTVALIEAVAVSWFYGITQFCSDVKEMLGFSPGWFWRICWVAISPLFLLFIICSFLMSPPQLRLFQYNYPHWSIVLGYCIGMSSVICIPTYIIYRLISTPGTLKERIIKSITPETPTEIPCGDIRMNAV
Method: Uptake inhibition assay for the serotonin transporter was conducted in rat brain synaptosomes as described elsewhere with minor modifications (Rothman et al., Synapse 39, 32-41 (2001)). Freshly removed whole brain minus cerebellum and caudate was homogenized in 10% ice-cold sucrose with 12 strokes of a hand-held Potter-Elvehjem homogenizer followed by centrifugation at 1000×g for 10 min. The supernatants were saved on ice and used immediately. Transporter activity at SERT was assessed using 5 nM [^3H]serotonin. The assay buffer was Krebs-phosphate buffer containing 154.4 mM NaCl, 2.9 mM KCl, 1.1 mM CaCl2, 0.83 mM MgCl2, 5 mM glucose, 1 mg/mL ascorbic acid, and 50 μM pargyline. […] Uptake inhibition assays were conducted at 25° C. and were initiated by adding 100 μL of tissue to 900 μL assay buffer containing test drug and [^3H]serotonin. Test drugs were diluted in assay buffer containing 1 mg/mL bovine serum albumin. Nonspecific uptake was measured by incubating in the presence of 10 μM indatraline. The reactions were stopped after 30 min by rapid vacuum filtration with a cell harvester (BRANDEL) over GF/B filters (Whatman) presoaked in wash buffer maintained at 25° C. (10 mM Tris-HCl, pH 7.4/150 mM NaCl). Filters were rinsed with 6 mL wash buffer and retained tritium was quantified by a MicroBeta liquid scintillation counter (PerkinElmer) after overnight extraction in 0.6 mL of liquid scintillation cocktail (Cytoscint, ICN). The data from three experiments were pooled and fit to a dose-response curve equation (using Kaleidagraph), to yield an Emax and EC50 value.

[2] = target: norepinephrine transporter (NET) (Rattus norvegicus, UniProt Q63380); assay: [3H]norepinephrine (NE) uptake inhibition in rat brain synaptosomes; assay type: biochemical; conditions: for NE Uptake Emax / EC50: rat brain synaptosomes, 10 nM [3H]norepinephrine, mean ± SD; for EC50: read-out: NE Uptake EC50; for Emax: read-out: NET Uptake Emax; for IC50: read-out: NET Uptake IC50, mean ± S.D., n = 3
Chain of norepinephrine transporter (NET) (Q63380 1-617): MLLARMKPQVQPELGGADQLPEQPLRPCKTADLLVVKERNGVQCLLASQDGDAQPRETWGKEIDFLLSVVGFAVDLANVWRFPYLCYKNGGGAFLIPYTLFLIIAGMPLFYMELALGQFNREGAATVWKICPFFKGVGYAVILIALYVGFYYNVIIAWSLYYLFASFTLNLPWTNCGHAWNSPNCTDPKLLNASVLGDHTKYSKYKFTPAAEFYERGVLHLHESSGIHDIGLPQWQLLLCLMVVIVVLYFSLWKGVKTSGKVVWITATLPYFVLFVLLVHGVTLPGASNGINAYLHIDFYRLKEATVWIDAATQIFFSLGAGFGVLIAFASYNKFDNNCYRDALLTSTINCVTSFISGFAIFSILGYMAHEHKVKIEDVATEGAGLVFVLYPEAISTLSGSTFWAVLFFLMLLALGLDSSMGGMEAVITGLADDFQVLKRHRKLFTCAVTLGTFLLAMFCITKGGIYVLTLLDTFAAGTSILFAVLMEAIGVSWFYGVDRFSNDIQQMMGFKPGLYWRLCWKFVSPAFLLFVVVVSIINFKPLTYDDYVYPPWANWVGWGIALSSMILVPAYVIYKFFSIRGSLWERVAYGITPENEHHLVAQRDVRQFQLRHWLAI
Method: Uptake inhibition assay for the norepinephrine transporter was conducted in rat brain synaptosomes as described elsewhere with minor modifications (Rothman et al., Synapse 39, 32-41 (2001)). Freshly removed whole brain minus cerebellum and caudate was homogenized in 10% ice-cold sucrose with 12 strokes of a hand-held Potter-Elvehjem homogenizer followed by centrifugation at 1000×g for 10 minutes. The supernatants were saved on ice and used immediately. Transporter activity at NET was assessed using 10 nM [^3H]norepinephrine. The assay buffer was Krebs-phosphate buffer containing 154.4 mM NaCl, 2.9 mM KCl, 1.1 mM CaCl2, 0.83 mM MgCl2, 5 mM glucose, 1 mg/mL ascorbic acid, and 50 μM pargyline. […] Uptake inhibition assays were conducted at 37° C. and were initiated by adding 100 μL of tissue to 900 μL assay buffer containing test drug and [^3H]norepinephrine. Test drugs were diluted in assay buffer containing 1 mg/mL bovine serum albumin. Nonspecific uptake was measured by incubating in the presence of 10 μM indatraline. The reactions were stopped after 10 minutes by rapid vacuum filtration with a cell harvester (BRANDEL) over GF/B filters (Whatman) presoaked in wash buffer maintained at 25° C. (10 mM Tris-HCl, pH 7.4/150 mM NaCl). Filters were rinsed with 6 mL wash buffer and retained tritium was quantified by a MicroBeta liquid scintillation counter (PerkinElmer) after overnight extraction in 0.6 mL of liquid scintillation cocktail (Cytoscint, ICN). The data from three experiments were pooled and fit to a dose-response curve equation (using Kaleidagraph), to yield an Emax and EC50 value.

DAT = DAT (Rattus norvegicus (Rat), UniProt P23977); assay: Inhibition of [3H]WIN35428 binding to rat caudate DAT; conditions: [3H]WIN35428, mean ± S.D., n = 3; for IC50: unit as printed in head (text gives 1100 nM where table prints 1.1)
Chain of DAT (P23977 whole entry): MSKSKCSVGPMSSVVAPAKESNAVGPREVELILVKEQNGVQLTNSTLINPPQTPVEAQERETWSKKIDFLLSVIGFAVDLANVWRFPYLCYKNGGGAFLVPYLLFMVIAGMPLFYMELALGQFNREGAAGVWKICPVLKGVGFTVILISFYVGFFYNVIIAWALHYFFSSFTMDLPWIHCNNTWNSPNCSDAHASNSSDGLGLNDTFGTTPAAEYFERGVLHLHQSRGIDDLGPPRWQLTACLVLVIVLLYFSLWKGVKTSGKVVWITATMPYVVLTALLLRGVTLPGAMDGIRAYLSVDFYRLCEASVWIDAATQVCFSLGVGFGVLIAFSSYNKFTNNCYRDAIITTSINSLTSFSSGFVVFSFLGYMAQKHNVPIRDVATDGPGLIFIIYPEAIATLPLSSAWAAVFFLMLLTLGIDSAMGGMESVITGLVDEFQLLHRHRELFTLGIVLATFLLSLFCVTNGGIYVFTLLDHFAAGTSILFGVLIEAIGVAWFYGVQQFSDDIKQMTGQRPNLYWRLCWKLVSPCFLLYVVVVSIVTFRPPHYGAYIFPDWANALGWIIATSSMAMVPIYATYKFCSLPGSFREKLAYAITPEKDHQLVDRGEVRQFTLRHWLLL
Method: All of the test compounds were synthesized as described herein. […] The data from three experiments were pooled and fit to a dose-response curve equation (using KaleidaGraph; Synergy Software, Reading, Pa.) to yield an Emax and IC50 value. […] Selected compounds were also tested for their ability to inhibit [^3H]WIN35428 binding to rat caudate DAT.

[3] = target: dopamine transporter (DAT) (Rattus norvegicus (Rat), UniProt P23977); assay: [3H]dopamine (DA) uptake inhibition in rat brain (caudate) synaptosomes; assay type: biochemical; conditions: for Emax: mean ± S.D., n = 3, read-out: DAT Uptake Emax; for DA Uptake Emax / EC50: rat caudate synaptosomes, 5 nM [3H]dopamine, mean ± SD
Chain of dopamine transporter (DAT) (P23977 whole entry): as above
Method: Uptake inhibition assay for the dopamine transporter was conducted in rat brain synaptosomes as described elsewhere with minor modifications (Rothman et al., Synapse 39, 32-41 (2001)). Freshly removed caudate was homogenized in 10% ice-cold sucrose with 12 strokes of a hand-held Potter-Elvehjem homogenizer followed by centrifugation at 1000×g for 10 min. The supernatants were saved on ice and used immediately. Transporter activity was assessed using 5 nM [^3H]dopamine. The assay buffer was Krebs-phosphate buffer containing 154.4 mM NaCl, 2.9 mM KCl, 1.1 mM CaCl2, 0.83 mM MgCl2, 5 mM glucose, 1 mg/mL ascorbic acid, and 50 μM pargyline. The selectivity of the uptake assay for DAT was optimized by including 100 nM citalopram and 100 nM desipramine as blockers of SERT and NET in the sucrose solution and assay buffer. Uptake inhibition assays were conducted at 25° C. and were initiated by adding 100 μl of tissue to 900 μL assay buffer containing test drug and [^3H]dopamine. Test drugs were diluted in assay buffer containing 1 mg/mL bovine serum albumin. Nonspecific uptake was measured by incubating in the presence of 10 μM indatraline. The reactions were stopped after 15 minutes by rapid vacuum filtration with a cell harvester (BRANDEL) over GF/B filters (Whatman) presoaked in wash buffer maintained at 25° C. (10 mM Tris-HCl, pH 7.4/150 mM NaCl). Filters were rinsed with 6 mL wash buffer and retained tritium was quantified by a MicroBeta liquid scintillation counter (PerkinElmer) after overnight extraction in 0.6 mL of liquid scintillation cocktail (Cytoscint, ICN). The data from three experiments were pooled and fit to a dose-response curve equation (using Kaleidagraph), to yield an Emax and EC50 value.
All of the test compounds were synthesized as described herein. Next, 8-point dose-response curves were generated for each compound (1-20,000 nM) in the [^3H]DA uptake assay. The data from three experiments were pooled and fit to a dose-response curve equation (using KaleidaGraph; Synergy Software, Reading, Pa.) to yield an Emax and IC50 value. […] Selected compounds were also tested for their ability to inhibit [^3H]WIN35428 binding to rat caudate DAT.

Structure (SMILES) | Emax [1] [%] | 5HT Uptake Emax [1] [% I] | EC50 [1] [nM] | NE Uptake Emax [2] [% I] | EC50 [2] [nM] | Emax [2] [%] | IC50 [2] [nM] | Emax (DAT) [%] | IC50 (DAT) [nM] | Emax [3] [%] | DA Uptake Emax [3] [% I] | EC50 [3] [nM]
CS(=O)(=O)Nc1ccc(-c2nc(NCC(O)(c3ccccc3)c3ccccc3)c3ccccc3n2)cc1 [Compound 4, N-(4-(4-((2-hydroxy-2,2-diphenylethyl)amino)quinazolin-2-yl)phenyl)methanesulfonamide] | 55 ± 3 | 55 ± 3 | 50 ± 14 | 70 ± 2 | 426 ± 49 | 70 ± 2 | 426 ± 49 | 47 ± 7 | 970 ± 650 | 70 ± 2 | 70 ± 2 | 11 ± 2
Cc1cc(NS(C)(=O)=O)ccc1-c1nc(NCC(c2ccccc2)c2ccncc2)c2ccccc2n1 (stereo not shown) [Compound 29, N-(3-methyl-4-(4-((2-phenyl-2-(pyridin-4-yl)ethyl)amino)quinazolin-2-yl)phenyl)methanesulfonamide] | 58 ± 3 | 58 ± 3 | 8 ± 2.8 | 71 ± 3 | 31 ± 7 | 71 ± 3 | 31 ± 7 | 72 ± 7 | 3150 ± 1110 | 74 ± 4 | 74 ± 4 | 7.4 ± 2
Cc1cc(NS(C)(=O)=O)ccc1-c1nc(NCC(c2ccccc2)c2ccccc2)c2ccccc2n1 [Compound 52, N-(4-(4-((2,2-diphenylethyl)amino)quinazolin-2-yl)-3-methylphenyl)methanesulfonamide] | 50 ± 2 |  |  |  |  | 65 ± 3 | 144 ± 30 | 60 ± 7 |  | 60 ± 2 |  | 
CS(=O)(=O)Nc1ccc(-c2nc(NCC(c3ccccc3)c3ccccc3)c3ccccc3n2)c(Cl)c1 [Compound 53, N-(3-chloro-4-(4-((2,2-diphenylethyl)amino)quinazolin-2-yl)phenyl)methanesulfonamide] | 51 ± 2 |  |  |  |  | 67 ± 2 | 47 ± 10 | 30 ± 3 |  | 67 ± 1 |  | 
CSc1ncc(-c2nc(NCC(c3ccccc3)c3ccccc3)c3ccccc3n2)cn1 [SRI-29338] | 52 ± 3 |  |  |  |  | 62 ± 3 | 204 ± 47 | 63 ± 4 | 1180 ± 930 | 71 ± 2 |  | 
CNc1ncc(-c2nc(NCC(c3ccccc3)c3ccccc3)c3ccccc3n2)cn1 [SRI-29554] | 60 ± 3 |  |  |  |  | 78 ± 2 | 179 ± 27 | 59 ± 6 | 980 ± 460 | 71 ± 1 |  | 
Cn1cc2cc(-c3nc(NCC(c4ccccc4)c4ccccc4)c4ccccc4n3)ccc2n1 [SRI-29776] | 61 ± 2 |  |  |  |  | 71 ± 3 | 229 ± 43 | 58 ± 3 | 6090 ± 970 | 69 ± 2 |  | 
CN(C)c1ncc(-c2nc(NCC(O)(c3ccccc3)c3ccccc3)c3ccccc3n2)cn1 [SRI-29982] | 51 ± 1 |  |  |  |  | 71 ± 2 | 259 ± 41 | 47 ± 6 | 2460 ± 1210 | 73 ± 2 |  | 
OC(CNc1nc(-c2ccc3[nH]ccc3c2)nc2ccccc12)(c1ccccc1)c1ccccc1 [SRI-29983] | 57 ± 2 |  |  |  |  | 73 ± 6 | 203 ± 79 | 55 ± 3 | 1290 ± 340 | 70 ± 2 |  | 
c1ccc(C(CNc2nc(-c3cnc4nccn4c3)nc3ccccc23)c2ccccn2)cc1 (stereo not shown) [SRI-30507] | 54 ± 2 |  |  |  |  | 77 ± 2 | 132 ± 16 | 62 ± 7 | 4800 ± 1810 | 71 ± 2 |  | 
OC(CNc1nc(-c2cnc3nccn3c2)nc2ccccc12)(c1ccccc1)c1ccccc1 [SRI-30508] | 56 ± 1 |  |  |  |  | 76 ± 9 | 69 ± 18 | 34 ± 3 | 150 ± 90 | 65 ± 1 |  | 
c1ccc(C(CNc2nc(-c3ccc4nccn4c3)nc3ccccc23)C2CCCCC2)cc1 (stereo not shown) [SRI-30513] | 59 ± 4 |  |  |  |  | 65 ± 4 | 153 ± 55 | 50 ± 4 | 2970 ± 1030 | 72 ± 2 |  | 
c1ccc(C(CNc2nc(-c3ccc4nccn4c3)nc3ccccc23)c2cccnc2)cc1 (stereo not shown) [SRI-30946] | 59 ± 3 |  |  |  |  | 75 ± 3 | 78 ± 17 | 44 ± 3 | 1170 ± 320 | 70 ± 2 |  | 
